This note sets out measurements from US20050245399A1, “Pyrazole derivatives as herbicidal compositions containing them” (ISHIHARA SANGYO KAISHA, LTD., priority 2004, published 2005).

Holding throughout (assay type): in vivo
The subject of assay [1] is corn (Zea mays L.), ZEAMX. In words: Test Example 2 post-emergence (foliage treatment) herbicidal activity, ZEAMX. The note with it: 63 g a.i./ha. In a few lines:
(§1)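 Each species was evaluated for growth suppression by eye, 0% matching untreated and 100% meaning death, some 20 to 23 days after a single post-emergence foliar treatment applied in 500 L/ha of water carrying 0.1% (v/v) agricultural spreader.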

Assay [2] concerns crabgrass (Digitaria sanguinalis L.), DIGSA. The assay is described as follows: Test Example 2 post-emergence (foliage treatment) herbicidal activity, DIGSA. The note with it: 63 g a.i./ha. A digest of the protocol:
(§2)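 Greenhouse pot test with upland field soil. Treatment: foliage spray, active ingredient at a predetermined amount, 500 L/ha, spreader 0.1% (v/v); leaf stage 0.1-1.5 (AMARE), 1.1-2.1 (ECHCG), 1.0-2.0 (DIGSA), 1.0-2 (ORYSA). Endpoint: visual % control, d20-23.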

Assay [3] deals with rice (Oryza sativa L.): ORYSA. The assay is described as follows: Test Example 1 pre-emergence herbicidal activity, ORYSA. The note with it: Rate 63 g a.i./ha, visually observed 20th to 23rd day after application. A digest of the protocol:
(§3)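 Compound was delivered by small sprayer to sown upland soil one day after sowing, before emergence, at 500 L/ha spray volume. Plant growth was assessed visually around 3 weeks later (days 20–23), 100% denoting complete kill.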

Assay [4] concerns prickly sida (Sida spinosa L.), SIDSP. In words: Test Example 2 post-emergence (foliage treatment) herbicidal activity, SIDSP. The note with it: 63 g a.i./ha. In a few lines: as §1
Assay [5] deals with green foxtail (Setaria viridis L.): SETVI. In words: Test Example 1 pre-emergence herbicidal activity, SETVI. The note with it: Rate 63 g a.i./ha, visually observed 20th to 23rd day after application. In a few lines: as §3
Assay [6] relates to barnyardgrass (Echinochloa crus-galli L.): ECHCG. In words: Test Example 1 pre-emergence herbicidal activity, ECHCG. The note with it: Rate 63 g a.i./ha, visually observed 20th to 23rd day after application. A digest of the protocol: as §3
Assay [7] relates to crabgrass (Digitaria sanguinalis L.): DIGSA. The assay is described as follows: Test Example 1 pre-emergence herbicidal activity, DIGSA. The note with it: Rate 63 g a.i./ha, visually observed 20th to 23rd day after application. In a few lines: as §3
In assay [8] the test system is japanese ribbon wapato (Sagittaria pygmaea: SA GPY). In words: Test Example 3 water application herbicidal activity (paddy), SAGPY. The note with it: 63 g a.i./ha, water application under submerged condition, tubers planted, visually observed 14th day after application; 0 = untreated control, 100 = complete kill. A digest of the protocol:
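Compound, as diluted wettable powder or emulsifiable concentrate, was pipetted into flood water at a set active-ingredient dose. Weeds were treated at 0.5-leaf stage after sowing or tuber planting; 2-leaf rice 4 days post-transplant. Control scored visually, 0 untreated to 100 complete kill, weeds day 14, rice day 21.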

In assay [9] the test system is common cocklebur (Xanthium strumarium L.), XANST. In words: Test Example 2 post-emergence (foliage treatment) herbicidal activity, XANST. The note with it: 63 g a.i./ha. From the text: Upland field soil was put into a 1/170,000 ha pot, and seeds of various plants were sown. Then, when the plants reached predetermined leaf stages {1. barnyardgrass (Echinochloa crus-galli L.), ECHCG: 1.1-2.1 leaf stage, 2. crabgrass (Digitaria sanguinalis L.), DIGSA: 1.0-2.0 leaf stage, 3. green foxtail (Setaria viridis L.), SETVI: 1.0-2.2 leaf stage, 4. redroot pigweed (Amaranthus retroflexus L.), AMARE: 0.1-1.5 leaf stage, 5. prickly sida (Sida spinosa L.), SIDSP: 0.1-0.6 leaf stage, 6. velvetleaf (Abutilon theophrasti), ABUTH: 0.1-0.6 leaf stage, 7. common cocklebur (Xanthium strumarium L.), XANST: 0.1 leaf stage, 8. rice (Oryza sativa L.), ORYSA; 1.0-2 leaf stage, 9. wheat (Triticum aestivum L.), TRZAX: 2.3-3.5 leaf stage, 10. corn (Zea mays L.), ZEAMXN 2.1-2.6 leaf stage, 11. soybean (Glycine max Merr.), GLXMA: primary leaf stage}, a wettable powder or emulsifiable concentrate having the compound of the present invention formulated in accordance with a usual formulation method, was weighed so that the active ingredient would be a predetermined amount, and diluted with water in an amount of 500 L/ha. To the diluted solution, 0.1% (v/v) of an agricultural spreader was added. The herbicide adjusted was applied by a small size sprayer for foliage treatment. On the 20th to 23rd day after the application of the herbicide, the growth of the respective plants was visually observed, and the herbicidal effects were evaluated by growth controlling degrees (%) ranging from 0 (equivalent to the untreated control) to 100 (complete kill), whereby the results shown in Table 5, were obtained. Compound Nos. in Table 5 correspond to Compound Nos. in Table 1 and 2 given hereinbefore.

In assay [10] the test system is prickly sida (Sida spinosa L.): SEDSP. In words: Test Example 1 pre-emergence herbicidal activity, SIDSP. The note with it: Rate 63 g a.i./ha, visually observed 20th to 23rd day after application. A digest of the protocol:
as §3

In assay [11] the test system is soybean (Glycine max Merr.): GLXMA. In words: Test Example 1 pre-emergence herbicidal activity, GLXMA. The note with it: Rate 63 g a.i./ha, visually observed 20th to 23rd day after application. A digest of the protocol:
as §3

Assay [12] has as its system redroot pigweed (Amaranthus retroflexus L.), AMARE. The assay is described as follows: Test Example 2 post-emergence (foliage treatment) herbicidal activity, AMARE. The note with it: 63 g a.i./ha. A digest of the protocol: as §2
Assay [13] deals with barnyardgrass (Echinochloa crus-galli L.), ECHCG. In words: Test Example 2 post-emergence (foliage treatment) herbicidal activity, ECHCG. The note with it: 63 g a.i./ha. A digest of the protocol: as §2
Assay [14] deals with green foxtail (Setaria viridis L.), SETVI. The assay is described as follows: Test Example 2 post-emergence (foliage treatment) herbicidal activity, SETVI. The note with it: 63 g a.i./ha. In a few lines: as §1
The subject of assay [15] is wheat (Triticum aestivum L.), TRZAX. The assay is described as follows: Test Example 2 post-emergence (foliage treatment) herbicidal activity, TRZAX. The note with it: 63 g a.i./ha. A digest of the protocol:
as §1

Consider `COc1c(Cl)cc(F)c(-c2nn(C)c(OC(F)F)c2Cl)c1N(C=O)C1CCCC1` [Compound 1-10], for which the “growth controlling degree, ZEAMX” value in assay [1] was 40%. For the same compound, in assay [2], the “growth controlling degree, DIGSP” value turned out to be 60%. For the same compound, the “Pre-emergence Herbicidal Activity ORYSA (growth controlling degree)” value (“Pre-emergence Herbicidal Activity ORYSA” for short) in assay [3] is 70%. Moreover, in assay [4], the “growth controlling degree, SIDSP” value is 100%. For the same compound, the “Pre-emergence Herbicidal Activity SETVI (growth controlling degree)” value (shortened to “Pre-emergence Herbicidal Activity SETVI”) in [5] worked out at 100%. For the same compound, the “Pre-emergence Herbicidal Activity ECHCG (growth controlling degree)” value (“Pre-emergence Herbicidal Activity ECHCG” below) in assay [6] was 90%. The “Pre-emergence Herbicidal Activity DIGSP (growth controlling degree)” value (from here on “Pre-emergence Herbicidal Activity DIGSP”) in [7] worked out at 60%. Moreover, the “growth controlling degrees (%) SAGPY” value in assay [8] was 40%. In addition, the “growth controlling degree, XANST” value in assay [9] was found to be 100%. Besides, the “Pre-emergence Herbicidal Activity SIDSP (growth controlling degree)” value (shortened to “Pre-emergence Herbicidal Activity SIDSP”) in [10] came to 100%. Also, in assay [11], the “Pre-emergence Herbicidal Activity GLXMA (growth controlling degree)” value (“Pre-emergence Herbicidal Activity GLXMA” below) stood at 50%. In assay [12], the “growth controlling degree, AMARE” value is given as 100%. In addition, the “growth controlling degree, ECHCO” value in [13] turned out to be 90%. The “growth controlling degree, SETVI” value in [14] is given as 100%. For the same compound, the “growth controlling degree, TRZAX” value in [15] is given as 40%.

Consider `COc1c(Cl)cc(F)c(-c2nn(C)c(OC(F)F)c2Cl)c1NC(C)C` [Compound 1-59], for which, in assay [1], the “growth controlling degree, ZEAMX” value turned out to be 80%. Also, the “growth controlling degree, DIGSP” value in assay [2] is recorded as 98%. Besides, the “Pre-emergence Herbicidal Activity ORYSA” value in assay [3] is 50%. The “growth controlling degree, SIDSP” value in assay [4] is given as 100%. In [5], the “Pre-emergence Herbicidal Activity SETVI” value is reported as 100%. The “Pre-emergence Herbicidal Activity ECHCG” value in assay [6] is given as 60%. Moreover, in assay [7], the “Pre-emergence Herbicidal Activity DIGSP” value amounted to 100%. The “growth controlling degrees (%) SAGPY” value in [8] is 60%. Besides, the “growth controlling degree, XANST” value in [9] was 100%. The “Pre-emergence Herbicidal Activity SIDSP” value in assay [10] is 100%. In addition, in assay [11], the “Pre-emergence Herbicidal Activity GLXMA” value is 30%. Further, the “growth controlling degree, AMARE” value in assay [12] was found to be 100%. Further, the “growth controlling degree, ECHCO” value in assay [13] was 100%. In assay [14], the “growth controlling degree, SETVI” value is listed as 100%. Also, in [15], the “growth controlling degree, TRZAX” value was 50%.

Regarding `CNc1c(OC)c(Cl)cc(F)c1-c1nn(C)c(OC(F)F)c1Cl` [Compound 1-58], in [1], the “growth controlling degree, ZEAMX” value was determined as 100%. Also, the “growth controlling degree, DIGSP” value in assay [2] is 100%. In addition, in assay [3], the “Pre-emergence Herbicidal Activity ORYSA” value came out at 60%. In addition, the “growth controlling degree, SIDSP” value in [4] was 100%. Further, the “Pre-emergence Herbicidal Activity SETVI” value in [5] is listed as 100%. In addition, the “Pre-emergence Herbicidal Activity ECHCG” value in [6] was 100%. Also, the “Pre-emergence Herbicidal Activity DIGSP” value in assay [7] is listed as 100%. For the same compound, in assay [8], the “growth controlling degrees (%) SAGPY” value amounted to 100%. Besides, the “growth controlling degree, XANST” value in assay [9] is reported as 100%. In addition, the “Pre-emergence Herbicidal Activity SIDSP” value in assay [10] is listed as 100%. The “Pre-emergence Herbicidal Activity GLXMA” value in assay [11] was determined as 20%. Also, the “growth controlling degree, AMARE” value in [12] was 100%. In addition, the “growth controlling degree, ECHCO” value in assay [13] turned out to be 100%. In addition, the “growth controlling degree, SETVI” value in [14] was determined as 100%. In addition, the “growth controlling degree, TRZAX” value in [15] was 60%.

Regarding `COc1c(Cl)cc(F)c(-c2nn(C)c(OC(F)F)c2Cl)c1N(C=O)CC(C)=O` [Compound 1-14], the “growth controlling degree, ZEAMX” value in [1] is listed as 40%. For the same compound, in [2], the “growth controlling degree, DIGSP” value is given as 98%. Moreover, the “Pre-emergence Herbicidal Activity ORYSA” value in [3] was found to be 40%. For the same compound, the “growth controlling degree, SIDSP” value in assay [4] came out at 100%. Moreover, the “Pre-emergence Herbicidal Activity SETVI” value in [5] was 100%. In addition, the “Pre-emergence Herbicidal Activity ECHCG” value in assay [6] is 98%. Further, in assay [7], the “Pre-emergence Herbicidal Activity DIGSP” value turned out to be 98%. Also, the “growth controlling degrees (%) SAGPY” value in assay [8] amounted to 98%. Besides, in [9], the “growth controlling degree, XANST” value is 100%. Moreover, the “Pre-emergence Herbicidal Activity SIDSP” value in assay [10] came out at 100%. The “Pre-emergence Herbicidal Activity GLXMA” value in assay [11] turned out to be 60%. Also, the “growth controlling degree, AMARE” value in [12] came out at 100%. The “growth controlling degree, ECHCO” value in assay [13] is given as 98%. Further, in [14], the “growth controlling degree, SETVI” value was determined as 100%. The “growth controlling degree, TRZAX” value in [15] was determined as 40%.
